Measured values: publication PMC10484922, “Discovery of a selective and biologically active low-molecular weight antagonist of human interleukin-1β” (Nature Communications, 2023)
Entries after “also recorded” stand apart in the source; their conditions may differ.

Test system: CHO IL-36R reporter cell line stimulated with IL-36γ
Assay: NanoBiT reporter assay, CHO IL-36R cells, IL-36γ driven
Format: cell-based
Set-up: average: scale not given here
Procedure: Reporter cell system for NanoBiT assay
CHO IL-36R or CHO IL-1R1 reporter cell lines, prepared internally (Klemens Ka u p ma n n ), based on tagged IL-1RAcP and Myd88 proteins using the NanoBiT complementation system, were seeded at a densi ty of 10’000 cells/well in 30 µL of OptiMEM + 0.1 % FCS medium using 384-well plates (white, TCT), for 24 hours.
Before the treatment, the medium was removed, 20 µL of NanoGlo substrate, (#N2012, Pr o me g a ) were added to the wells. Following substrate addi ti on, 240 nL of compound were added to the wells using an ECH O dispenser device. Then, 3.76 µL of the ligand IL-36g (Novartis) at 200 ng/mL end concentration or recombinant IL-1b (Novartis) at 500 pg/mL end concentration were added to the mix. Luminescence was measured at 405 nm after 30 min incubation (Pherastar reader). […]

Q: For Cc1ccc2c(c1)NC(=O)[C@@]2(c1cn[nH]c1)c1cc(-c2ccc(C(=O)O)cc2C(=O)O)ccc1O [Compound (S)-2], which “IL-36γ-driven NanoBiT reporter activity” value is on record?
A: The value was “without effect on IL-36g-driven activity; also recorded: no inhibitory activity”.

Q: What about the average (IL-36, EXP1, conc 0.00610352 uM) of the same molecule?
A: The average was -8.032.

Q: And the average (IL-36, EXP1, conc 0.012207 uM)?
A: The average was -2.7959.

Q: And the average (IL-36, EXP1, conc 0.0244141 uM)?
A: Its average is -4.066.

Q: What about the average (IL-36, EXP1, conc 0.0488281 uM) of the same molecule?
A: Its average is -1.337.

Q: What about the average (IL-36, EXP1, conc 0.0976562 uM) of the same molecule?
A: The average was -10.0933.

Q: What about the average (IL-36, EXP1, conc 0.195312 uM) of the same molecule?
A: Its average is -6.363.

Q: And the average (IL-36, EXP1, conc 0.390625 uM)?
A: Its average is -11.0347.

Q: What about the average (IL-36, EXP1, conc 0.78125 uM) of the same molecule?
A: Its average is -4.52.

Q: And the average (IL-36, EXP1, conc 1.5625 uM)?
A: Its average is -4.793.

Q: And the average (IL-36, EXP1, conc 3.125 uM)?
A: The average was -8.376.

Q: And the average (IL-36, EXP1, conc 6.25 uM)?
A: Its average is -1.775.

Q: What about the average (IL-36, EXP1, conc 12.5 uM) of the same molecule?
A: Its average is -2.393.

Q: And the average (IL-36, EXP1, conc 25 uM)?
A: Its average is -11.2956.

Q: And the average (IL-36, EXP1, conc 50 uM)?
A: Its average is -8.608.

Q: What about the average (IL-36, EXP1, conc 100 uM) of the same molecule?
A: The average was 2.894.

Q: What about the average (IL-36, EXP2, conc 0.00610352 uM) of the same molecule?
A: Its average is -0.8565.

Q: And the average (IL-36, EXP2, conc 0.012207 uM)?
A: Its average is -0.8771.

Q: And the average (IL-36, EXP2, conc 0.0244141 uM)?
A: The average was 16.4182.

Q: And the average (IL-36, EXP2, conc 0.0488281 uM)?
A: The average was -7.751.

Q: What about the average (IL-36, EXP2, conc 0.0976562 uM) of the same molecule?
A: The average was 10.3597.

Q: What about the average (IL-36, EXP2, conc 0.195312 uM) of the same molecule?
A: The average was 5.839.

Q: And the average (IL-36, EXP2, conc 0.390625 uM)?
A: The average was 4.392.

Q: What about the average (IL-36, EXP2, conc 0.78125 uM) of the same molecule?
A: The average was 8.396.

Q: And the average (IL-36, EXP2, conc 1.5625 uM)?
A: Its average is 12.4114.

Q: And the average (IL-36, EXP2, conc 3.125 uM)?
A: The average was 6.063.

Q: What about the average (IL-36, EXP2, conc 6.25 uM) of the same molecule?
A: Its average is 0.8781.

Q: And the average (IL-36, EXP2, conc 12.5 uM)?
A: Its average is 10.8339.

Q: And the average (IL-36, EXP2, conc 25 uM)?
A: Its average is 7.445.

Q: And the average (IL-36, EXP2, conc 50 uM)?
A: Its average is 10.4408.

Q: And the average (IL-36, EXP2, conc 100 uM)?
A: Its average is 12.6091.

Q: What about the average (IL-36, EXP3, conc 0.00610352 uM) of the same molecule?
A: Its average is 2.096.

Q: And the average (IL-36, EXP3, conc 0.012207 uM)?
A: Its average is -6.441.

Q: And the average (IL-36, EXP3, conc 0.0244141 uM)?
A: Its average is 4.8088.

Q: What about the average (IL-36, EXP3, conc 0.0488281 uM) of the same molecule?
A: Its average is -5.951.

Q: What about the average (IL-36, EXP3, conc 0.0976562 uM) of the same molecule?
A: Its average is -4.784.

Q: What about the average (IL-36, EXP3, conc 0.195312 uM) of the same molecule?
A: The average was -4.89.

Q: What about the average (IL-36, EXP3, conc 0.390625 uM) of the same molecule?
A: The average was -47.4888.

Q: What about the average (IL-36, EXP3, conc 0.78125 uM) of the same molecule?
A: Its average is -7.151.

Q: And the average (IL-36, EXP3, conc 1.5625 uM)?
A: The average was -6.215.

Q: What about the average (IL-36, EXP3, conc 3.125 uM) of the same molecule?
A: The average was -8.634.

Q: And the average (IL-36, EXP3, conc 6.25 uM)?
A: Its average is -10.5486.

Q: What about the average (IL-36, EXP3, conc 12.5 uM) of the same molecule?
A: The average was -5.26.

Q: And the average (IL-36, EXP3, conc 25 uM)?
A: Its average is -17.1151.

Q: And the average (IL-36, EXP3, conc 50 uM)?
A: Its average is -4.192.

Q: What about the average (IL-36, EXP3, conc 100 uM) of the same molecule?
A: Its average is -4.987.
